PubChem BioAssay AID256 (DTP/NCI, 2004)
“And” between values parts separate entries of the source, which are not always exact repeats. Equal entries are not always repeated. Inconclusive results and toxic doses are left out. The calls were made as follows: active = survival T/C of 150% or more; inactive = T/C below 125% in these data.

Test system: CD2F1 mice, L1210 leukemia ip, survival T/C
Assay: NCI In Vivo Anticancer Drug Screen. Data for tumor model L1210 Leukemia (intraperitoneal) in CD2F1 (CDF1) mice
Details: higher = longer survival
Method in brief: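 Vehicle-treated tumor-bearing mice served as controls (C) for compound-treated mice (T). Reported figure is T divided by C.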

[1] = endpoint: mean survival time, dose: 100.0 mg/kg/injection, schedule: Q04DX003 (ip), vehicle: saline with Tween-80
[2] = endpoint: mean survival time, dose: 200.0 mg/kg/injection, schedule: Q04DX003 (ip), vehicle: saline with Tween-80
[3] = endpoint: mean survival time, dose: 400.0 mg/kg/injection, schedule: Q04DX003 (ip), vehicle: saline with Tween-80
[4] = endpoint: mean survival time, dose: 100.0 mg/kg/injection, schedule: Q01DX009 (ip), vehicle: saline with Tween-80
[5] = endpoint: mean survival time, dose: 200.0 mg/kg/injection, schedule: Q01DX009 (ip), vehicle: saline with Tween-80
[6] = endpoint: mean survival time, dose: 400.0 mg/kg/injection, schedule: Q01DX009 (ip), vehicle: saline with Tween-80

Measured: T/C

CN(C)Cc1ccc(C(C)(C)C)cc1Br
inactive: endpoint: mean survival time, dose: 12.5 mg/kg/injection, schedule: Q01DX009 (ip), vehicle: water 98 % of control | endpoint: mean survival time, dose: 25.0 mg/kg/injection, schedule: Q01DX009 (ip), vehicle: water 95 % of control | endpoint: mean survival time, dose: 50.0 mg/kg/injection, schedule: Q01DX009 (ip), vehicle: water 98 % of control | endpoint: mean survival time, dose: 100.0 mg/kg/injection, schedule: Q01DX009 (ip), vehicle: water 98 % of control | endpoint: mean survival time, dose: 200.0 mg/kg/injection, schedule: Q01DX009 (ip), vehicle: water 104 % of control

Cc1cc(Cl)nc(N)n1
inactive: endpoint: mean survival time, dose: 100.0 mg/kg/injection, schedule: Q04DX002 (ip), vehicle: Klucel (hydroxypropylcellulose) (HPC) 90 % of control | endpoint: mean survival time, dose: 200.0 mg/kg/injection, schedule: Q04DX002 (ip), vehicle: Klucel (hydroxypropylcellulose) (HPC) 86 % of control

[CH3][Sn]([CH3])([Cl])[S]CCN
inactive: endpoint: median survival time, dose: 3.12 mg/kg/injection, schedule: Q01DX009 (ip), vehicle: saline 107 % of control | endpoint: median survival time, dose: 6.25 mg/kg/injection, schedule: Q01DX009 (ip), vehicle: saline 101 % of control | endpoint: median survival time, dose: 12.5 mg/kg/injection, schedule: Q01DX009 (ip), vehicle: saline 109 % of control | endpoint: median survival time, dose: 25.0 mg/kg/injection, schedule: Q01DX009 (ip), vehicle: saline 111 % of control | endpoint: median survival time, dose: 50.0 mg/kg/injection, schedule: Q01DX009 (ip), vehicle: saline 114 % of control

COC1=C(C)C(=O)C2=C(C1=O)C1C3CC4=C(C(=O)C(OC)=C(C)C4=O)C(CNC(=O)C(C)=O)N3C(C#N)C(C2)N1C (centres undefined)
inactive: endpoint: median survival time, dose: 0.13 mg/kg/injection, schedule: Q01DX009 (ip), vehicle: Klucel (hydroxypropylcellulose) (HPC) 118 % of control | endpoint: median survival time, dose: 0.25 mg/kg/injection, schedule: Q01DX009 (ip), vehicle: Klucel (hydroxypropylcellulose) (HPC) 110 % of control | endpoint: median survival time, dose: 0.5 mg/kg/injection, schedule: Q01DX009 (ip), vehicle: Klucel (hydroxypropylcellulose) (HPC) 113 % of control and 108 % of control | endpoint: median survival time, dose: 1.0 mg/kg/injection, schedule: Q01DX009 (ip), vehicle: Klucel (hydroxypropylcellulose) (HPC) 116 % of control and 112 % of control | endpoint: median survival time, dose: 2.0 mg/kg/injection, schedule: Q01DX009 (ip), vehicle: Klucel (hydroxypropylcellulose) (HPC) 108 % of control | endpoint: median survival time, dose: 62.5 micrograms/kg/injection, schedule: Q01DX009 (ip), vehicle: Klucel (hydroxypropylcellulose) (HPC) 100 % of control | endpoint: median survival time, dose: 125.0 micrograms/kg/injection, schedule: Q01DX009 (ip), vehicle: Klucel (hydroxypropylcellulose) (HPC) 104 % of control | endpoint: median survival time, dose: 250.0 micrograms/kg/injection, schedule: Q01DX009 (ip), vehicle: Klucel (hydroxypropylcellulose) (HPC) 108 % of control | endpoint: median survival time, dose: 500.0 micrograms/kg/injection, schedule: Q01DX009 (ip), vehicle: Klucel (hydroxypropylcellulose) (HPC) 117 % of control | endpoint: median survival time, dose: 1000.0 micrograms/kg/injection, schedule: Q01DX009 (ip), vehicle: Klucel (hydroxypropylcellulose) (HPC) 122 % of control

CCCCCCC(C/C=C\CCCCCCCC(=O)OC)OC(C)=O (centres undefined)
inactive: [1] 101 % of control | [2] 101 % of control | [3] 97 % of control

CNCc1c[nH]c(=O)[nH]c1=O
inactive: [1] 102 % of control | [2] 98 % of control | [3] 94 % of control

CC1C2CC3C(OC(=O)C13)C2I (centres undefined)
inactive: [4] 95 % of control | [1] 95 % of control | [5] 86 % of control | [2] 89 % of control | [6] 92 % of control | [3] 87 % of control

CN(/N=N/c1nc[nH]c1C(N)=O)C1CCCCC1
inactive: endpoint: mean survival time, dose: 7.8 mg/kg/injection, schedule: Q01DX009 (ip), vehicle: Klucel (hydroxypropylcellulose) (HPC) 105 % of control | endpoint: mean survival time, dose: 31.2 mg/kg/injection, schedule: Q01DX009 (ip), vehicle: Klucel (hydroxypropylcellulose) (HPC) 124 % of control | endpoint: mean survival time, dose: 125.0 mg/kg/injection, schedule: Q01DX009 (ip), vehicle: Klucel (hydroxypropylcellulose) (HPC) 122 % of control | endpoint: mean survival time, dose: 250.0 mg/kg/injection, schedule: Q01DX009 (ip), vehicle: Klucel (hydroxypropylcellulose) (HPC) 70 % of control

O=[N+]([O-])c1ncn[nH]1
inactive: [4] 111 % of control | [5] 100 % of control | [6] 92 % of control

CON(C)C(=O)N1c2ccccc2Sc2ccccc21
inactive: [1] 87 % of control | [2] 87 % of control

CCc1c(N=O)c(-c2ccccc2)n(O)[n+]1[O-]
inactive: endpoint: mean survival time, dose: 50.0 mg/kg/injection, schedule: Q01DX009 (ip), vehicle: Klucel (hydroxypropylcellulose) (HPC) 104 % of control | endpoint: mean survival time, dose: 100.0 mg/kg/injection, schedule: Q01DX009 (ip), vehicle: Klucel (hydroxypropylcellulose) (HPC) 101 % of control | endpoint: mean survival time, dose: 200.0 mg/kg/injection, schedule: Q01DX009 (ip), vehicle: Klucel (hydroxypropylcellulose) (HPC) 95 % of control

O=C(CNC(=O)c1ccccc1)N/N=C/c1ccncc1
inactive: [4] 90 % of control | [6] 92 % of control

CC1CN(Br)C(=O)N(Br)C1=O (centres undefined)
inactive: endpoint: mean survival time, dose: 75.0 mg/kg/injection, schedule: Q01DX001 (ip), vehicle: saline 102 % of control | endpoint: mean survival time, dose: 150.0 mg/kg/injection, schedule: Q01DX001 (ip), vehicle: saline 100 % of control

NNC(=O)C1CCN1C(c1ccccc1)c1ccccc1 (centres undefined)
inactive: endpoint: mean survival time, dose: 100.0 mg/kg/injection, schedule: Q01DX001 (ip), vehicle: saline with Tween-80 98 % of control

CCC1([N+](=O)[O-])COC(c2ccc(Cl)cc2)OC1 (centres undefined)
inactive: endpoint: mean survival time, dose: 100.0 mg/kg/injection, schedule: Q01DX001 (ip), vehicle: Klucel (hydroxypropylcellulose) (HPC) 104 % of control | endpoint: mean survival time, dose: 200.0 mg/kg/injection, schedule: Q01DX001 (ip), vehicle: Klucel (hydroxypropylcellulose) (HPC) 86 % of control | endpoint: mean survival time, dose: 400.0 mg/kg/injection, schedule: Q01DX001 (ip), vehicle: Klucel (hydroxypropylcellulose) (HPC) 111 % of control
